From BigSolDB 2.1

Clc1ccc2c(Cl)ccnc2c1
Settings | solubility (mole fraction)
in THF, 299.4 K | 0.0683
in THF, 303.2 K | 0.0701
in THF, 309.1 K | 0.0745
in THF, 313.3 K | 0.081
in THF, 318.1 K | 0.0887
in THF, 323.2 K | 0.1
in THF, 328.3 K | 0.119
in THF, 333.4 K | 0.14
in acetone, 299.2 K | 0.0591
in acetone, 303.2 K | 0.0614
in acetone, 309.1 K | 0.0658
in acetone, 313.3 K | 0.0725
in acetone, 318.1 K | 0.0818
in acetone, 323.2 K | 0.0954
in acetone, 328.3 K | 0.113
in acetonitrile, 299.8 K | 0.00603
in acetonitrile, 303.2 K | 0.00814
in acetonitrile, 308.1 K | 0.0127
in acetonitrile, 313.3 K | 0.0208
in acetonitrile, 318.1 K | 0.0307
in acetonitrile, 323.2 K | 0.0489
in acetonitrile, 328.3 K | 0.0788
in acetonitrile, 333.4 K | 0.13
in ethanol, 299.8 K | 0.0113
in ethanol, 303.2 K | 0.0145
in ethanol, 308.1 K | 0.0224
in ethanol, 313.3 K | 0.0364
in ethanol, 318.1 K | 0.0564
in ethanol, 323.2 K | 0.0886
in ethanol, 328.3 K | 0.135
in ethanol, 333.4 K | 0.208
in water, 298 K | 2.84e-05
in water, 303.3 K | 2.9e-05
in water, 308.2 K | 3.01e-05
in water, 313.1 K | 3.21e-05
in water, 318.3 K | 3.45e-05
in water, 323.3 K | 3.88e-05
in water, 327.7 K | 4.2e-05
in water, 333.3 K | 4.85e-05
